Measurements taken from publication PMC3703636 (2013).

Columns and labels:
Assay in all cases: gel filtration, radiolabeled GTP
Details in all cases: reduced relative to wild type
[1] = system: NRAS translational repressor mut (RNA, G4) GGUAGGGUCGGUUCUGGU
[2] = system: c-MYC transcriptional repressor mut (DNA, G4) GGGTAGGAAGGGTAGGA
[3] = system: VEGF IRES mut (RNA, G4) UGAUGAGUGUGAGGAGGA

binding [1]: weak | binding [2]: weak | binding [3]: weak
Compound: Nc1nc2c(ncn2[C@@H]2O[C@H](COP(=O)(O)OP(=O)(O)OP(=O)(O)O)[C@@H](O)[C@H]2O)c(=O)[nH]1
